Patent US20130178437A1, “CONJUGATES COMPRISING HYDROXYALKYL STARCH AND A CYTOTOXIC AGENT AND PROCESS FOR THEIR PREPARATION” (priority 2010, published 2013)
Marks after values point to notes of the source that are not given here.

Columns and labels:
[1] = test system: human mamma carcinoma MT3-ADR; assay: Tumor growth inhibition, s.c. MT3-ADR xenografts in nude mice (doxorubicin conjugates); assay type: in vivo, NMRI:nu/nu mice; conditions: Table 14; 8 mg/kg/inj. i.v., treatment d 10
Text: (§1) For all in vivo studies in which doxorubicin conjugates wer administred, adult female NMRI:nu/nu mice (TACONIC Europe, Lille Skensved, Denmark) were used throughout the study.
(§2) The human breast cancer carcinoma MT-3, human ovarian cancer carcinoma ovcar-3 and human mamma carcinoma MT3-ADR were used as s.c. xenotransplantation model in immunodeficient female […] mice (see table 17).
(§3) The cells were obtained from ATCC and are cryo-preserved within the EPO tumor bank. They were thawed, expanded in vitro and transplanted as cell suspension subcutaneously (s.c.) in female NMRI:nu/nu mice. The tumor lines MT-3, ovcar-3 and MT3-ADR are used for testing new anticancer drugs or novel therapeutic strategies. It was therefore selected for this study. MT-3, ovcar-3 and MT3-ADR xenografts are growing relatively fast and uniform.
(§4) For experimental use 5*10^6 to 10^7 tumor cells/mouse from the in vitro passage were transplanted s.c. into the flank of each of 10 mice/group at day 0.
(§5) At palpable tumor size (30-100 mm^3) treatment started. The application volume was 0.2 ml/20 g mouse body weight. The test compounds, the vehicle controls and the reference compounds were all given intravenously (i.v.).
(§6) Tumor growth inhibition was used as therapeutic parameter. Additionally, body weight change was determined as signs for toxicity (particularly, potential hematological or gastrointestinal side effects).
(§7) Tumor diameters were measured twice weekly with a caliper. Tumor volumes were calculated according to V=(length×(width)^2)/2. For calculation of the relative tumor volume (RTV) the tumor volumes at each measurement day were related to the day of first treatment. At each measurement day the median and mean tumor volumes per group and also the treated to control (T/C) values in percent were calculated (Table 10 to 15).
(§8) Descriptive statistics were performed on the data of body weight and tumor volume. […] Statistical evaluation was performed with the U-test of Mann and Whitney with a significance level of p≦0.05, using the Windows program […] 6. […]

[2] = test system: human ovarian cancer carcinoma ovcar-3; assay: Tumor growth inhibition, s.c. ovcar-3 xenografts in nude mice (doxorubicin conjugates); assay type: in vivo, NMRI:nu/nu mice; conditions: Table 13; 8 mg/kg/inj. i.v., treatment d 5
Text: as §1, §2, §3, §4, §5, §6, §7, §8

[3] = Body weight change and toxic deaths in xenograft-bearing mice (doxorubicin studies); assay type: in vivo, NMRI:nu/nu mice; conditions: for Toxic deaths: 7 mice
Description: as §1, §5, §6
Individual body weights of mice were determined twice weekly and mean body weight per group was related to the initial value in percent (body weight change, BWC).
On the day of necropsy the mice were sacrificed by cervical dislocation and inspected for gross organ changes.
(§9) Tables 10 to 15 summarize the results for the tested, Doxorubicin conjugates and the reference compound Doxorubicin.
The loss of body weight is known to be an indicator of gastro-intestinal and hepatotoxicity of the tested compound.

[4] = test system: human breast cancer carcinoma MT-3; assay: Tumor growth inhibition, s.c. MT-3 xenografts in nude mice (doxorubicin conjugates); assay type: in vivo, NMRI:nu/nu mice; conditions: 8 mg/kg/inj. i.v.
Text: as §1, §2, §3, §4, §5, §6, §7
Descriptive statistics were performed on the data of body weight and tumor volume. […] Statistical evaluation was performed with the U-test of Mann and Whitney with a significance level of p≦0.05, using the Windows program […] 6.
The tested Doxorubicin conjugates CDx1 to CDx15 were obtained as described herein above and were kept in a freeze-dried form at −20° C. until the use. Before administration, the conjugates were dissolved in saline solution by vortexing in combination with centrifugation until a clear solution of the necessary concentration of the drug was obtained. The obtained solutions were prepared and injected under sterile conditions.
The reference compound was Doxorubicin (which is, for example, available as Doxorubicin NC® from Neocorp). Doxorubicin was stored in aliquots at 4° C. in the dark and diluted in saline before administration.
as §9

[5] = test system: human breast cancer carcinoma MT-3; assay: Tumor growth inhibition, s.c. MT-3 xenografts in nude mice (epirubicin and idarubicin conjugates); assay type: in vivo, NMRI-nu/nu nude mice; conditions: MT-3 subtype obtained from a different laboratory; unmodified drug
Description: All experiments were performed using 5-6 weeks old female NMRI^−nu/nu nude mice (approximate weight: 30 g after acclimatization). Mice were maintained in individual ventilated cages (IVC, max. 3 mice/cage) at constant temperature and humidity. Animal weights were taken every other day (Monday, Wednesday and Friday). Animal behavior was monitored daily. At study end, animals were sacrificed and in case the tumor volume was measured a necropsy was performed.
Monolayers of MT-3 cells were grown in DMEM 4500 with phenol red supplement with 10% FCS, 1% L-Glutamine, 100 units penicillin/ml, and 100 μg of streptomycin/ml. MT-3 cells were cultured in a humidified atmosphere of 90% air and 10% carbon dioxide at 37° C. Media were routinely changed every 3 days.
For experimental use 5×10^6 to 10^7 tumor cells/mouse from the in vitro passage were transplanted s.c. into the flank of each of 10 mice/group at day 0.
At palpable tumor size (30-100 mm^3) treatment was started. The application volume was 0.2 ml/20 g mouse body weight. The test compounds, the vehicle controls and the reference compounds were all given intravenously (i.v.).
Tumor growth inhibition was used as therapeutic parameter. Additionally, body weight change was determined as signs for toxicity (particularly, potential hematological or gastrointestinal side effects). […]

[6] = Table 13, ovcar-3 model, 8 mg/kg/inj. i.v., treatment d 5
[7] = Table 14, MT3-ADR model, 8 mg/kg/inj. i.v., treatment d 10

COc1cccc2c1C(=O)c1c(O)c3c(c(O)c1C2=O)C[C@@](O)(C(=O)CO)C[C@@H]3O[C@H]1C[C@H](N)[C@H](O)[C@H](C)O1 [Doxorubicin]
RTV T/C (%) Optimum [1]: 58.4% | RTV T/C (%) Optimum (at day) [1]: (29) day | Tumor growth RTV d 31 [1]: 15.3 +/− 5.9* | RTV T/C (%) Optimum [2]: 37.1% | RTV T/C (%) Optimum (at day) [2]: (19) day | Tumor growth RTV d 39 [2]: 9.86 +/− 7.98 | BWC (%) (d 10/d 28) ([3]; Table 11, MT-3 model, 8 mg/kg/inj. i.v., treatment d 10): 2% | BWC [%] (at day) ([3]; Table 12, MT-3 model, 8 mg/kg/inj. i.v., treatment d 7): (19) day | BWC [%] ([3]; Table 12, MT-3 model, 8 mg/kg/inj. i.v., treatment d 7, maximum body weight loss): −2% | BWC [%] (at day) [3, 6]: (7) day | Toxic deaths [3, 6]: 0 | BWC [%] ([3]; Table 13, ovcar-3 model, 8 mg/kg/inj. i.v., treatment d 5, maximum body weight loss): −4% | BWC [%] (at day) [3, 7]: (25) day | Toxic deaths [3, 7]: 0 | BWC [%] ([3]; Table 14, MT3-ADR model, 8 mg/kg/inj. i.v., treatment d 10, maximum body weight loss): −8% | BWC (%) (d 7/d 20) ([3]; Table 15, MT-3 model, 8 mg/kg/inj. i.v., treatment d 7): −6% | BWC (%): day of maximum body weight loss ([3]; mouse, in vivo, iv, 8 mg/kg): (d 24) | BWC [%] ([3]; mouse, in vivo, iv, 8 mg/kg): −8% | T/C (%) (TV) at the end ([4]; Table 10, treatment d 7, 14): 1.16 +/− 0.35% | T/C (%) Optimum ([4]; Table 10, treatment d 7, 14): 32.2% | T/C (%) Optimum (at day) ([4]; Table 10, treatment d 7, 14): (18) day | Tumor growth RTV d 28 ([4]; Table 10, treatment d 7, 14): 10.8 +/− 3.7 | T/C (%) Optimum ([4]; Table 11, treatment d 10): 30% | T/C (%) Optimum (at day) ([4]; Table 11, treatment d 10): (21) day | Tumor growth RTV d 28 ([4]; Table 11, treatment d 10): 4.3 +/− 3.4 | RTV T/C (%) Optimum ([4]; Table 12, treatment d 7): 39.2% | RTV T/C (%) Optimum (at day) ([4]; Table 12, treatment d 7): (29) day | Tumor growth RTV d 33 ([4]; Table 12, treatment d 7): 5.59 +/− 0.78* | T/C (%) Optimum ([4]; Table 15, treatment d 7): 37.8% | T/C (%) Optimum (at day) ([4]; Table 15, treatment d 7): (13) day | Tumor growth RTV d 20 ([4]; Table 15, treatment d 7): 8.1 +/− 2.1*

COc1cccc2c1C(=O)c1c(O)c3c(c(O)c1C2=O)C[C@@](O)(C(=O)CO)C[C@@H]3O[C@H]1C[C@H](N)[C@@H](O)[C@H](C)O1 [Epirubicin]
sensibility of the MT-3 subtype towards anthracycline therapy [5]: no sensibility towards anthracycline therapy

CC(=O)[C@]1(O)Cc2c(O)c3c(c(O)c2[C@@H](O[C@H]2C[C@H](N)[C@H](O)[C@H](C)O2)C1)C(=O)c1ccccc1C3=O [Idarubicin]
sensibility of the MT-3 subtype towards anthracycline therapy [5]: no sensibility towards anthracycline therapy
